Experiments:
Caco-2 cells = assay: Caco-2 cell monolayer transport; type: in vitro ADME, human; conditions: 500 μM apical, PBS pH 6, within 24 h, compared with Ret-NH2
Description: 1. Coating and preparing culture inserts for seeding: Rat tail collagen was diluted 1:9 with 0.5% acetic acid. The resulting solution (200 ul) was added to each insert to coat the surface. The inserts were air-dried overnight, followed by a UV irradiation for 45 min to sterilize the inserts. 2. Seeding cells onto an insert: A concentration of 4×10^5 cells/well EMEM solution containing 20% FBS was added to the precoated insert. Another 2 ml of fresh EMEM media was added to the other side (bottom). The media was changed after 1 day of incubation and every other day after that. The cells were cultured for 21 days until they were mature. 3. Transport experiment: The media was aspirated out. The cell monolayers were washed with PBS three times. Cells were further incubated with PBS for 1 h under 37° C. to allow them to release all the materials that may be taken up during incubation. PBS solution was removed and the prodrug solution (500 μM in 2.0 ml PBS (pH=6) solution) was loaded to the apical side. The basolateral side was loaded with 2.5 ml fresh PBS solution. The plates were incubated under 37° C. Samples of 200 μl were withdrawn from the basolateral side at several time points within 24 h. The drug release amount was determined by UV spectrometer.

ARPE19 cells = assay: ARPE19 cell uptake; type: cell-based, human; conditions: 10 μM, 16 h, compared with Ret-NH2
Description: The ARPE19 cells (human RPE cells purchased from American Type Culture Collection) were plated in 6-well plates using Dulbecco's Modified Eagle Medium (DMEM) and allowed to grow to 90% confluency. The cells were then incubated with DMEM containing 10 μM derivatives for 16 hours under dark room conditions. Control group was cell without drug. Medium was removed and cells were washed three times by PBS after 16 h of incubation. Cells were then collected. Samples were treated with 400 μl of methanol, homogenized at 37° C. for 1 h, followed by a centrifugation. The 100 μl of the supernatant was analyzed by reverse phase HPLC. Reverse-phase HPLC (analytical C18 reverse column; 5 μm; 250 mm×4.6 mm; flow rate of 1.0 mL/min; 60:40 acetonitrile:H2O (v:v) with 0.05% trifluoroacetic acid; detection at 325 nm) was utilized to determine retinylamine or its derivative in […].

[1] = Pharmacokinetics of PEG-GFL-NH-Ret in C57BL mice (N-retinylamides in liver and eye); type: in vivo; conditions: 1 mg equivalent Ret-NH2 per mouse oral, especially first 8 h after gavage
Description: Female C57BL mice (4-week-old) were randomly divided into two dosing groups. One group of mice was gavaged with one dose of Ret-NH2 (1 mg per mouse, dissolved in DMSO), and the other group of mice was also gavaged once with PEG-GFL-NH-Ret (17.5 mg per mouse, equivalent to 1 mg Ret-NH2 per mouse). Then at each predetermined time point (0, 4 h, 8 h, 24 h, 48 h and 72 h after drug administration), 6 mice were sacrificed. The liver and eye balls were collected to determine tissue N-retinylamide content for pharmacokinetic analysis. A portion of the liver tissue (ca. 0.5 g) was weighed, homogenized in 2 mL 1:1 ethanol:PBS solution and the eye balls were similarly processed. N-Retinylamides were extracted in 4 mL hexane, concentrated, and reconstituted to a 300 μL volume. Normal-phase HPLC (Agilent-Zorbax SIL; 5 μm; 4.5×250 mm; flow rate of 1.4 mL/min; 80:20 hexane:ethyl acetate (v:v); detection at 325 nm) was utilized to determine N-retinylamide concentration in these tissues.

Abca4^−/−Rdh8^−/− mice = assay: Preventing light-induced retinal degeneration with PEG-GFL-NH-Ret in Abca4-/-Rdh8-/- mice; type: in vivo, mouse
Description: Abca4^−/−Rdh8^−/− mice (male and female, 4-week-old, 4-5 mice in each treatment group) were kept in the dark for 48 h before each experiment. Then free Ret-NH2 (0.5 mg, 1.75 μmol) per mouse) or conjugate PEG-GFL-NH-Ret (8.75 mg per mouse, equivalent to 0.5 mg free Ret-NH2 per mouse) was administered by gastric gavage. Mice were illuminated with 10,000 lux light for 30 min at 1 day, 3 days or 6 days after their gavage, and then kept in the dark for 7 days when final retinal evaluations were performed. […] Dark-adapted mice were anesthetized by the same protocol used for OCT recordings. All experimental procedures were performed under a safety light. A contact lens electrode was placed on the eye, and a reference electrode and ground electrode were placed underneath the skin between the two ears and in the tail, respectively. ERGs were recorded with the universal electrophysiologic system UTAS E-3000 (LKC Technologies, Inc., Gaithersburg, Md.). Light intensity calibrated by the manufacturer was computer-controlled. Mice were placed in a Ganzfeld dome, and scotopic responses to flash stimuli were obtained from both eyes simultaneously.

[2] = Storage stability of PEG-GFL-NH-Ret conjugate in solid form; type: physicochemical; conditions: room temperature, same condition
Text: The number and weight-average molecular weights of polymer conjugate was 21 and 22 kDa (Mw/Mn=1.05), as determined by size exclusion chromatography. […] The structure of PEG-GFL-NHRet was preserved during the storage in solid form more than 6 months at room temperature, while free Ret-NH2 decomposed in less than 1 week under the same condition.

Row | ERG responses (Abca4^−/−Rdh8^−/− mice; gavaged 3 days before strong light exposure) | time to decomposition on storage [2] | Structure (SMILES) | transport through the Caco-2 monolayer (Caco-2 cells) | uptake in ARPE19 cells (ARPE19 cells) | liver concentrations of N-retinylamides [1] | protection against light-induced retinal degeneration by OCT (Abca4^−/−Rdh8^−/− mice; 0.5 mg Ret-NH2 equivalent per mouse gavaged 1 day before light exposure) | protection against light-induced retinal degeneration by OCT (Abca4^−/−Rdh8^−/− mice; 0.5 mg Ret-NH2 equivalent per mouse gavaged 3 days before light exposure) | protection against light-induced retinal degeneration by OCT (Abca4^−/−Rdh8^−/− mice; 0.5 mg Ret-NH2 equivalent per mouse gavaged 6 days before light exposure) | ONL thickness from OCT images (Abca4^−/−Rdh8^−/− mice; gavaged 1 day before light exposure) | ONL thickness from OCT images (Abca4^−/−Rdh8^−/− mice; gavaged 3 days before strong light illumination)
1 | – | – | CC1=C(/C=C/C(C)=C/C=C/C(C)=C/CNC(=O)[C@@H](N)Cc2ccccc2)C(C)(C)CCC1 [RF, (S)-2-amino-N-((2E,4E,6E,8E)-3,7-dimethyl-9-(2,6,6-trimethylcyclohex-1-en-1-yl)nona-2,4,6,8-tetraen-1-yl)-3-phenylpropanamide] | significantly higher transport through the Caco-2 monolayer | higher uptake in ARPE19 cells than Ret-NH2 | – | – | – | – | – | –
2 | – | – | CC1=C(/C=C/C(C)=C/C=C/C(C)=C/CNC(=O)[C@@H](NC(=O)CN)C(C)C)C(C)(C)CCC1 [RVG, (S)-2-(2-aminoacetamido)-N-((2E,4E,6E,8E)-3,7-dimethyl-9-(2,6,6-trimethylcyclohex-1-en-1-yl)nona-2,4,6,8-tetraen-1-yl)-3-methylbutanamide] | significantly higher transport through the Caco-2 monolayer | higher uptake in ARPE19 cells than Ret-NH2 | – | – | – | – | – | –
3 | significant loss of ERG activity | less than 1 week | CC1=C(/C=C/C(C)=C/C=C/C(C)=C/CN)C(C)(C)CCC1 [Ret-NH2, (2E,4E,6E,8E)-3,7-dimethyl-9-(2,6,6-trimethylcyclohex-1-en-1-yl)nona-2,4,6,8-tetraen-1-amine] | – | – | much higher liver concentrations of N-retinylamides than those treated with the conjugate | effective protection against light-induced retinal degeneration | did not maintain such protection | No protective effect | thickness comparable to that of mice without light illumination | significantly reduced
